Laboratory results as given in patent publication US20250062039A1, “ESTIMATION OF PHARMACOKINETIC (PK) PARAMETERS OF DRUG CANDIDATES USING UNIVERSAL PK PARAMETERS BOUNDS” (Tata Consultancy Services Limited, priority 2023, published 2025).
Where two headings read alike, the source gives them in different places.

What was measured:
[1] = in vivo, iv, 20 mg/kg
[2] = in vivo; conditions: non-human primates, iv, 20 mg/kg
[3] = 2 compartment model, cited from earlier work
[4] = clinical; conditions: human, in vivo, iv; for half-life: Selected Parameter Value
[5] = clinical; conditions: human, in vivo, iv
[6] = IV infusion 10 mg; cited from earlier work
[7] = cited from earlier work; for Conc (plasma concentration): 18.3 mg intravenously, subject 60.9 kg
[8] = Three compartment PK model parameter estimation from etomidate PCT profile (64 bound combinations, MWDO + Nelder Mead); parameters: species or system humans
[9] = IV Infusion, 4 mg for 5 minutes
[10] = MWDO, Upper Bound 1 of Table 18
[11] = MWDO, Upper Bound 2 of Table 18
[12] = MWDO, Upper Bound 3 of Table 18
[13] = Nelder Mead, bound combination 1
[14] = Nelder Mead, bound combination 2
[15] = Nelder Mead, bound combination 3
[16] = best set over all 64 bound combinations

COc1cc(NCc2ccc3nc(N)nc(N)c3c2C)cc(OC)c1OC [Trimetrexate]
K10, Converted value ([1]; non-human primate): 3.096 h⁻¹
K10, Selected Parameter Value ([1]; non-human primate): 0.0516 min⁻¹
K12, Converted value ([1]; non-human primates): 0.87 h⁻¹
K12, Selected Parameter Value ([1]; non-human primates): 0.0145 min⁻¹
K13, Converted value ([1]; non-human primates): 0.0075 h⁻¹
K13, Selected Parameter Value ([1]; non-human primates): 0.000125 min⁻¹
K21, Converted value ([1]; non-human primates): 1.296 h⁻¹
K21, Selected Parameter Value ([1]; non-human primates): 0.0216 min⁻¹
K31, Converted value ([1]; non-human primates): 0.093 h⁻¹
K31, Selected Parameter Value ([1]; non-human primates): 0.00155 min⁻¹
V1, Converted value ([1]; non-human primates): 0.15 L/kg
V1, Selected Parameter Value ([1]; non-human primates): 0.15 L/kg
V2, Converted value ([1]; non-human primates): 0.079 L/kg
V2, Selected Parameter Value ([1]; non-human primates): 0.079 L/kg
cl, Converted value ([1]; non-human primates): 0.252 L/h
clearance [2]: 4.2 mL/min
half-life ([2]; T1/2 alpha, Converted value): 0.305 h
half-life ([2]; T1/2 alpha, Selected Parameter Value): 0.305 h
half-life ([2]; T1/2 beta, Converted value): 1.43 h
half-life ([2]; T1/2 beta, Selected Parameter Value): 1.43 h

OC(CCN1CCCCC1)(c1ccccc1)C1CC2C=CC1C2 (stereo not drawn) [Biperiden]
AUC, Value [3, 9]: 62.8 ng·h/mL
CL, Value [3, 9]: 24 mL/min/kg
K12, Value [3, 9]: 0.1910 h⁻¹
K21, Value [3, 9]: 0.06 h⁻¹
T1/2 Alpha, Value [3, 9]: 1.5 h
T1/2 beta, Value [3, 9]: 24.3 h
V1, Value [3, 9]: 2.6 L/kg
Ka, Value ([3]; Oral 4 mg): 2.18 h⁻¹
clearance [4]: 24.8 mL/min/kg
half-life ([4]; T1/2 Alpha): 1.7 h
half-life ([4]; T1/2 beta): 28.2 h

CC(C)NCC(O)COc1ccc(CCOCC2CC2)cc1 (stereo not drawn) [Betaxolol]
Vd [5]: 5.81 L/kg
clearance [5]: 300 mL/min
AUC, Mean Value [6]: 610 ng·h/mL
CL, Mean Value [6]: 15.1 L/h
Lambda_Z, Mean Value [6]: 0.0415 h⁻¹
Vz, Mean Value [6]: 5.07 L/kg

CCOC(=O)c1cncn1[C@H](C)c1ccccc1 [etomidate]
Conc (plasma concentration) ([7]; Time 0.067 hr): 260 ng/mL
Conc (plasma concentration) ([7]; Time 0.133 hr): 180 ng/mL
Conc (plasma concentration) ([7]; Time 0.25 hr): 115 ng/mL
Conc (plasma concentration) ([7]; Time 0.5 hr): 88 ng/mL
Conc (plasma concentration) ([7]; Time 1 hr): 59.9 ng/mL
Conc (plasma concentration) ([7]; Time 2 hr): 32.5 ng/mL
Conc (plasma concentration) ([7]; Time 3 hr): 21.3 ng/mL
Conc (plasma concentration) ([7]; Time 4 hr): 15.8 ng/mL
Conc (plasma concentration) ([7]; Time 5 hr): 12.6 ng/mL
Conc (plasma concentration) ([7]; Time 6 hr): 11.4 ng/mL
Conc (plasma concentration) ([7]; Time 7 hr): 10.5 ng/mL
Conc (plasma concentration) ([7]; Time 8 hr): 9.9 ng/mL
Conc (plasma concentration) ([7]; Time 9 hr): 9.5 ng/mL
Conc (plasma concentration) ([7]; Time 10 hr): 9.1 ng/mL
A, Published parameter value ([7]; three compartment model): 0.297 µg/mL
Alpha, Published parameter value ([7]; three compartment model): 12.02 h⁻¹
B, Published parameter value ([7]; three compartment model): 0.117 µg/mL
Beta, Published parameter value ([7]; three compartment model): 0.935 h⁻¹
C, Published parameter value ([7]; three compartment model): 0.017 µg/mL
Gamma, Published parameter value ([7]; three compartment model): 0.064 h⁻¹
A, Globally optimized Parameter 1 [8, 10]: 0.2958 µg/mL
Alpha, Globally optimized Parameter 1 [8, 10]: 12.67 h⁻¹
B, Globally optimized Parameter 1 [8, 10]: 0.1079 µg/mL
Beta, Globally optimized Parameter 1 [8, 10]: 1.124 h⁻¹
C, Globally optimized Parameter 1 [8, 10]: 0.02617 µg/mL
Gamma, Globally optimized Parameter 1 [8, 10]: 0.1092 h⁻¹
A, Globally optimized Parameter 2 [8, 11]: 0.2529 µg/mL
Alpha, Globally optimized Parameter 2 [8, 11]: 10.44 h⁻¹
B, Globally optimized Parameter 2 [8, 11]: 0.1149 µg/mL
Beta, Globally optimized Parameter 2 [8, 11]: 0.351 h⁻¹
C, Globally optimized Parameter 2 [8, 11]: 0.005408 µg/mL
Gamma, Globally optimized Parameter 2 [8, 11]: 0.1074 h⁻¹
A, Globally optimized Parameter 3 [8, 12]: 0.13 µg/mL
Alpha, Globally optimized Parameter 3 [8, 12]: 5.539 h⁻¹
B, Globally optimized Parameter 3 [8, 12]: 0.1089 µg/mL
Beta, Globally optimized Parameter 3 [8, 12]: 0.3627 h⁻¹
C, Globally optimized Parameter 3 [8, 12]: 0.005084 µg/mL
Gamma, Globally optimized Parameter 3 [8, 12]: 0.0375 h⁻¹
A, Locally Optimized parameter 1 [8, 13]: 0.3151 µg/mL
Alpha, Locally Optimized parameter 1 [8, 13]: 11.49 h⁻¹
B, Locally Optimized parameter 1 [8, 13]: 0.1076 µg/mL
Beta, Locally Optimized parameter 1 [8, 13]: 0.8111 h⁻¹
C, Locally Optimized parameter 1 [8, 13]: 0.01292 µg/mL
Gamma, Locally Optimized parameter 1 [8, 13]: 0.03486 h⁻¹
A, Locally Optimized parameter 2 [8, 14]: 0.3151 µg/mL
Alpha, Locally Optimized parameter 2 [8, 14]: 11.49 h⁻¹
B, Locally Optimized parameter 2 [8, 14]: 0.1076 µg/mL
Beta, Locally Optimized parameter 2 [8, 14]: 0.8111 h⁻¹
C, Locally Optimized parameter 2 [8, 14]: 0.01292 µg/mL
Gamma, Locally Optimized parameter 2 [8, 14]: 0.03486 h⁻¹
A, Locally Optimized parameter 3 [8, 15]: 0.3151 µg/mL
Alpha, Locally Optimized parameter 3 [8, 15]: 11.49 h⁻¹
B, Locally Optimized parameter 3 [8, 15]: 0.1076 µg/mL
Beta, Locally Optimized parameter 3 [8, 15]: 0.8111 h⁻¹
C, Locally Optimized parameter 3 [8, 15]: 0.01292 µg/mL
Gamma, Locally Optimized parameter 3 [8, 15]: 0.03486 h⁻¹
A, Best Parameter/Best locally optimized value [8, 16]: 0.3151 µg/mL
A, Initial value/globally optimized value [8, 16]: 0.2703 µg/mL
Alpha, Best Parameter/Best locally optimized value [8, 16]: 11.49 h⁻¹
Alpha, Initial value/globally optimized value [8, 16]: 7.1437 h⁻¹
B, Best Parameter/Best locally optimized value [8, 16]: 0.1076 µg/mL
B, Initial value/globally optimized value [8, 16]: 0.07389 µg/mL
Beta, Best Parameter/Best locally optimized value [8, 16]: 0.8111 h⁻¹
Beta, Initial value/globally optimized value [8, 16]: 0.3665 h⁻¹
C, Best Parameter/Best locally optimized value [8, 16]: 0.01292 µg/mL
C, Initial value/globally optimized value [8, 16]: 0.01092 µg/mL
Gamma, Best Parameter/Best locally optimized value [8, 16]: 0.03486 h⁻¹
Gamma, Initial value/globally optimized value [8, 16]: 0.1479 h⁻¹
